The values below come from patent US20100130408A1, “USE OF MODIFIED CYCLOSPORINS” (priority 2006, published 2010).

For one assay, the system named is HCV. The following applies: Watashi et al., Hepatology (2003); cited from earlier work.
The subject of another assay is HSCs. The note with it: cited from earlier work.
For assay [1], the target named is T1, human recombinant cyclophilin (Homo sapiens, UniProt P62937). The experiment in a line: competitive ELISA, cyclophilin on coated BSA-cyclosporin A, reference cyclosporin A. The note with it: scale: log10. For orientation: ELISA stands for enzyme-linked immunosorbent assay.
The test system of the next assay is Balb/c spleen cells. The experiment in a line: Mixed Lymphocyte Reaction (MLR). The following applies: percentage of the activity relative to Cyclosporin A. The assay is classed as cell-based, mice. On the procedure:
A cyclosporin is considered to be non-immunosuppressive when it has an activity in the Mixed Lymphocyte Reaction (MLR) of no more than 5%, preferably no more than 2%, that of cyclosporin A. The Mixed Lymphocyte Reaction is described by T. Meo in “Immunological Methods”, L. Lefkovits and B. Peris, Eds., Academic Press, N.Y. pp. 227-239 (1979). Spleen cells (0.5×106) from Balb/c mice (female, 8-10 weeks) are co-incubated for 5 days with […] irradiated (2000 reds) or mitomycin C treated spleen cells from CBA mice (female, 8-10 weeks). The irradiated allogeneic cells induce a proliferative response in the Balb/c spleen cells which can be measured by labeled precursor incorporation into the DNA. […] The IC50 found for the test compound in the MLR is compared with that found for cyclosporin A in a parallel experiment. In addition, non-immunosuppressive cyclosporins lack the capacity of inhibiting CN and the downstream NF-AT pathway.

Assay [2] addresses T1, human recombinant cyclophilin. Briefly: competitive ELISA cyclophilin binding test (Binding Ratio). The note with it: log to the base 10 of IC50 test compound / IC50 cyclosporin A. On the procedure: A cyclosporin is considered as binding to cyclophilin if it binds to human recombinant cyclophilin at least one fifth as well as does cyclosporin A in the competitive ELISA test described by Quesniaux in Eur. J. Immunol. 1987 17 1359-1365. In this test, the cyclosporin to be tested is added during the incubation of cyclophilin with coated BSA-cyclosporin A and the concentration required to give a 50% inhibition of the control reaction without competitor is calculated (IC50). The results are expressed as the Binding Ratio (BR), which is the log to the base 10 of the ratio of the IC50 of the test compound and the IC50 in a simultaneous test of cyclosporin A itself.

T1 sequence (P62937 whole entry): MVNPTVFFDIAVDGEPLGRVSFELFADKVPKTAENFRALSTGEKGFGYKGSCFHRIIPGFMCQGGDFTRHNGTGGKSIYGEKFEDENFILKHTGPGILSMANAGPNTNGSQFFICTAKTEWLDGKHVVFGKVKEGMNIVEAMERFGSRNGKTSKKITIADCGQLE

Turning to `C=CC[C@@H]1/C=C(\C)C[C@H](C)C[C@H](OC)[C@H]2O[C@@](O)(C(=O)C(=O)N3CCCC[C@H]3C(=O)O[C@H](/C(C)=C/[C@@H]3CC[C@@H](O)[C@H](OC)C3)[C@H](C)[C@@H](O)CC1=O)[C@H](C)C[C@@H]2OC` [tacrolimus], in the assay on HCV, the “replication of HCV in vitro” value is on record as “did not show this effect”. Besides, in the assay on HSCs (12.5 nM (10 ng/ml), previously reported in Nakamuta et al), the “reduction of collagen production” value is “does not significantly reduces collagen production”. Also, the “cell growth and collagen production in HSCs” value with HSCs (previous evaluation of immunosuppressive drugs) was “did not have such effects”.

Take “[8'-hydroxy-MeBmt]^1-Ciclosporin (peptide)”: the Binding Ratio (BR) in assay [1] worked out at 0.35.

On to [8′-hydroxy-MeBmt]^1-Ciclosporin, for which, in the assay with Balb/c spleen cells, the “IR = Immunosuppressive Ratio” value came to 1.8%. Besides, the “Binding Ratio (BR)” value in assay [2] was found to be 0.35.

[Ethyl-Val]^4-Ciclosporin: the “IR = Immunosuppressive Ratio” value with Balb/c spleen cells is reported as less than 2%. The “Binding Ratio (BR)” value in assay [2] is 0.

[Ethyl-Val]^4-Ciclosporin (peptide): the Binding Ratio (BR) in assay [1] worked out at 0.

For [Ethyl-lle]^4-Ciclosporin, the “IR = Immunosuppressive Ratio” value in the assay on Balb/c spleen cells is less than 2%. Moreover, in assay [2], the “Binding Ratio (BR)” value is reported as 0.1.

With [Ethyl-lle]^4-Ciclosporin (peptide), the Binding Ratio (BR) in assay [1] came to 0.1.

For the compound [MeAla]^6-Ciclosporin, the “IR = Immunosuppressive Ratio” value in the assay with Balb/c spleen cells turned out to be 3.2%. Further, in assay [2], the “Binding Ratio (BR)” value is −0.4.

On to [MeAla]^6-Ciclosporin (peptide), for which the Binding Ratio (BR) in assay [1] is -0.4.

For the compound [MeVal]^4-Ciclosporin, the “IR = Immunosuppressive Ratio” value in the assay with Balb/c spleen cells was less than 1%. Also, the “Binding Ratio (BR)” value in assay [2] was 0.1.

Take [MeVal]^4-Ciclosporin (peptide): the Binding Ratio (BR) in assay [1] was 0.1.

For the compound [MeVal]^5-Ciclosporin, in the assay with Balb/c spleen cells, the “IR = Immunosuppressive Ratio” value turned out to be 5.3%. The “Binding Ratio (BR)” value in assay [2] is recorded as 0.4.

On to [MeVal]^5-Ciclosporin (peptide), for which, in assay [1], the Binding Ratio (BR) was determined as 0.4.

With [Melle]^4-Ciclosporin, in the assay on Balb/c spleen cells, the “IR = Immunosuppressive Ratio” value is less than 1%. The “Binding Ratio (BR)” value in assay [2] is on record as −0.2.

[Melle]^4-Ciclosporin (peptide): the Binding Ratio (BR) in assay [1] is -0.2.

As for “[dihydro-MeBmt]^1-[y-hydroxy-MeLeu]^4-Ciclosporin”, the “IR = Immunosuppressive Ratio” value in the assay with Balb/c spleen cells is given as less than 1%. Moreover, the “Binding Ratio (BR)” value in assay [2] is listed as 0.1.

“[dihydro-MeBmt]^1-[y-hydroxy-MeLeu]^4-Ciclosporin (peptide)”: the Binding Ratio (BR) in assay [1] was 0.1.

Take [y-hydroxy-MeLeu]^4-Ciclosporin: in the assay with Balb/c spleen cells, the “IR = Immunosuppressive Ratio” value is less than 1%. Besides, the “Binding Ratio (BR)” value in assay [2] was 0.4.

“[y-hydroxy-MeLeu]^4-Ciclosporin (peptide)”: the Binding Ratio (BR) in assay [1] came to 0.4.

Regarding [y-hydroxy-MeLeu]^9-Ciclosporin, the “IR = Immunosuppressive Ratio” value in the assay on Balb/c spleen cells was 2.9%. Moreover, in assay [2], the “Binding Ratio (BR)” value is reported as 0.15.

As for “[y-hydroxy-MeLeu]^9-Ciclosporin (peptide)”, the Binding Ratio (BR) in assay [1] came out at 0.15.
